Test results published in patent publication EP1285920A1, “C10 Ester sustituted taxanes as antitumor agents” (Florida State University Research Foundation, Inc., priority 2001, dated 2003).

Tested on: HCT116
Test: In Vitro cytotoxicity measured by the cell colony formation assay
Type: cell-based, human
Settings: HCT116 colony formation; 72 h with drug, colonies counted after 7 days; ID50 = concentration producing 50% inhibition of colony formation; read-out: IN VITRO ID 50 HCT116
Procedure, shortened: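 Four hundred cells per dish in McCoy's 5a medium with 10% FBS were allowed to attach for 5 h at 37 °C. They were then exposed to compound for 72 h at 37 °C, added as a 10× stock made fresh in medium. After HBSS rinsing and refeeding, colonies were counted after 7 days.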

Question: With `CC=CC(=O)OC1C(=O)C2(C)C(O)CC3OCC3(OC(C)=O)C2C(OC(=O)c2ccccc2)C2(O)CC(OC(=O)C(O)C(NC(=O)OC(C)(C)C)C3CCC3)C(C)=C1C2(C)C` (centres unmarked) [Compound 2424] as the molecule, how does the IC50 read?
Answer: < 10 nM

Question: Which IC50 does the source give for `CC=CC(=O)OC1C(=O)C2(C)C(O)CC3OCC3(OC(C)=O)C2C(OC(=O)c2ccccc2)C2(O)CC(OC(=O)C(O)C(NC(=O)OC(C)(C)C)c3ccco3)C(C)=C1C2(C)C` (centres unmarked) [Compound 2379] here?
Answer: < 1 nM

Same assay, conditions: Homo sapiens, HCT-116; read-out: IN VITRO ID 50 HCT116

Question: How did the IC50 turn out when `CC(=O)O[C@@]12CO[C@@H]1C[C@H](O)[C@@]1(C)C(=O)[C@H](OC(=O)C3CC3)C3=C(C)[C@@H](OC(=O)[C@H](O)[C@@H](NC(=O)OCC(C)C)c4cccs4)C[C@@](O)([C@@H](OC(=O)c4ccccc4)[C@H]21)C3(C)C` [Compound 3129] was run?
Answer: < 10 nM

Question: With `CC(=O)OC12COC1CC(O)C1(C)C(=O)C(OC(=O)C(C)C)C3=C(C)C(OC(=O)C(O)C(NC(=O)OC(C)(C)C)c4ccsc4)CC(O)(C(OC(=O)c4ccccc4)C21)C3(C)C` (centres unmarked) [Compound 2291] as the molecule, how does the IC50 read?
Answer: < 1 nM

Question: For `CC(=O)OC12COC1CC(O)C1(C)C(=O)C(OC(=O)C(C)C)C3=C(C)C(OC(=O)C(O)C(NC(=O)OC(C)(C)C)c4ccco4)CC(O)(C(OC(=O)c4ccccc4)C21)C3(C)C` (centres unmarked) [Compound 2269], which IC50 is on record?
Answer: < 1 nM

Question: For `CC(=O)O[C@@]12CO[C@@H]1C[C@H](O)[C@@]1(C)C(=O)[C@H](OC(=O)C3CC3)C3=C(C)[C@@H](OC(=O)[C@H](O)[C@@H](NC(=O)c4ccco4)c4cccs4)C[C@@](O)([C@@H](OC(=O)c4ccccc4)[C@H]21)C3(C)C` [Compound 3297], which IC50 is on record?
Answer: < 1 nM

Question: For `CC(=O)OC12COC1CC(O)C1(C)C(=O)C(OC(=O)C(C)C)C3=C(C)C(OC(=O)C(O)C(C=C(C)C)NC(=O)OC(C)(C)C)CC(O)(C(OC(=O)c4ccccc4)C21)C3(C)C` (centres unmarked) [Compound 2226], which IC50 is on record?
Answer: < 1 nM

Question: How did the IC50 turn out when `CC(=O)OC12COC1CC(O)C1(C)C(=O)C(OC(=O)C(C)C)C3=C(C)C(OC(=O)C(O)C(NC(=O)OC(C)(C)C)c4ccc([N+](=O)[O-])cc4)CC(O)(C(OC(=O)c4ccccc4)C21)C3(C)C` (centres unmarked) [Compound 2320] was run?
Answer: < 1 nM

Question: With `CCC(=O)OC1C(=O)C2(C)C(O)CC3OCC3(OC(C)=O)C2C(OC(=O)c2ccccc2)C2(O)CC(OC(=O)C(O)C(C=C(C)C)NC(=O)OCC(C)C)C(C)=C1C2(C)C` (centres unmarked) [Compound 5065] as the molecule, how does the IC50 read?
Answer: < 10 nM

Question: How did the IC50 turn out when `CCC(=O)OC1C(=O)C2(C)C(O)CC3OCC3(OC(C)=O)C2C(OC(=O)c2ccccc2)C2(O)CC(OC(=O)C(O)C(NC(=O)OC(C)(C)C)c3ccoc3)C(C)=C1C2(C)C` (centres unmarked) [Compound 5495] was run?
Answer: < 1 nM

Question: `CC(=O)O[C@@]12CO[C@@H]1C[C@H](O)[C@@]1(C)C(=O)[C@H](OC(=O)C3CC3)C3=C(C)[C@@H](OC(=O)[C@H](O)[C@@H](NC(=O)c4ccccc4)C4CC4)C[C@@](O)([C@@H](OC(=O)c4ccccc4)[C@H]21)C3(C)C` [Compound 0923] was tested. Which IC50 did it give?
Answer: < 1 nM

Question: For `C/C=C/C(=O)N[C@@H](c1ccco1)[C@@H](O)C(=O)O[C@H]1C[C@@]2(O)[C@@H](OC(=O)c3ccccc3)[C@@H]3[C@]4(OC(C)=O)CO[C@@H]4C[C@H](O)[C@@]3(C)C(=O)[C@H](OC(=O)C3CC3)C(=C1C)C2(C)C` [Compound 3971], which IC50 is on record?
Answer: < 1 nM

Question: Which IC50 does the source give for `CCC(=O)O[C@H]1C(=O)[C@@]2(C)[C@H]([C@H](OC(=O)c3ccccc3)[C@]3(O)C[C@H](OC(=O)[C@H](O)[C@@H](NC(=O)OC(C)(C)C)c4ccsc4)C(C)=C1C3(C)C)[C@]1(OC(C)=O)CO[C@@H]1C[C@@H]2O` [Compound 0562] here?
Answer: < 1 nM

Question: `CCC(=O)O[C@H]1C(=O)[C@@]2(C)[C@H]([C@H](OC(=O)c3ccccc3)[C@]3(O)C[C@H](OC(=O)[C@H](O)[C@@H](NC(=O)c4cccnc4)c4cccs4)C(C)=C1C3(C)C)[C@]1(OC(C)=O)CO[C@@H]1C[C@@H]2O` [Compound 4121] was tested. Which IC50 did it give?
Answer: < 10 nM

Question: With `CCCC(=O)N[C@@H](c1ccco1)[C@@H](O)C(=O)O[C@H]1C[C@@]2(O)[C@@H](OC(=O)c3ccccc3)[C@@H]3[C@]4(OC(C)=O)CO[C@@H]4C[C@H](O)[C@@]3(C)C(=O)[C@H](OC(=O)CCC)C(=C1C)C2(C)C` [Compound 3222] as the molecule, how does the IC50 read?
Answer: < 1 nM

Question: `CCCC(=O)O[C@H]1C(=O)[C@@]2(C)[C@H]([C@H](OC(=O)c3ccccc3)[C@]3(O)C[C@H](OC(=O)[C@H](O)[C@@H](NC(=O)c4cccnc4)c4cccs4)C(C)=C1C3(C)C)[C@]1(OC(C)=O)CO[C@@H]1C[C@@H]2O` [Compound 4190] was tested. Which IC50 did it give?
Answer: < 10 nM

Question: With `CCC(=O)O[C@H]1C(=O)[C@@]2(C)[C@H]([C@H](OC(=O)c3ccccc3)[C@]3(O)C[C@H](OC(=O)[C@H](O)[C@@H](NC(=O)c4ccccc4)C4CCC4)C(C)=C1C3(C)C)[C@]1(OC(C)=O)CO[C@@H]1C[C@@H]2O` [Compound 0720] as the molecule, how does the IC50 read?
Answer: < 10 nM

Question: Which IC50 does the source give for `CCC(=O)O[C@H]1C(=O)[C@@]2(C)[C@H]([C@H](OC(=O)c3ccccc3)[C@]3(O)C[C@H](OC(=O)[C@H](O)[C@@H](NC(=O)c4ccncc4)c4cccs4)C(C)=C1C3(C)C)[C@]1(OC(C)=O)CO[C@@H]1C[C@@H]2O` [Compound 4207] here?
Answer: < 10 nM

Question: How did the IC50 turn out when `CCCC(=O)O[C@H]1C(=O)[C@@]2(C)[C@H]([C@H](OC(=O)c3ccccc3)[C@]3(O)C[C@H](OC(=O)[C@H](O)[C@@H](NC(=O)OCC(C)C)c4ccoc4)C(C)=C1C3(C)C)[C@]1(OC(C)=O)CO[C@@H]1C[C@@H]2O` [Compound 4704] was run?
Answer: < 10 nM

Question: `CC(=O)O[C@@]12CO[C@@H]1C[C@H](O)[C@@]1(C)C(=O)[C@H](OC(=O)c3cccs3)C3=C(C)[C@@H](OC(=O)[C@H](O)[C@H](C=C(C)C)NC(=O)OC(C)(C)C)C[C@@](O)([C@@H](OC(=O)c4ccccc4)[C@H]21)C3(C)C` [Compound 1879] was tested. Which IC50 did it give?
Answer: < 10 nM

Question: With `CCCC(=O)O[C@H]1C(=O)[C@@]2(C)[C@H]([C@H](OC(=O)c3ccccc3)[C@]3(O)C[C@H](OC(=O)[C@H](O)[C@@H](NC(=O)OC(C)(C)C)c4cccnc4)C(C)=C1C3(C)C)[C@]1(OC(C)=O)CO[C@@H]1C[C@@H]2O` [Compound 0966] as the molecule, how does the IC50 read?
Answer: < 10 nM

Question: With `CC(=O)O[C@@]12CO[C@@H]1C[C@H](O)[C@@]1(C)C(=O)[C@H](OC(=O)C3CC3)C3=C(C)[C@@H](OC(=O)[C@H](O)[C@@H](NC(=O)c4cccnc4)c4cccs4)C[C@@](O)([C@@H](OC(=O)c4ccccc4)[C@H]21)C3(C)C` [Compound 4112] as the molecule, how does the IC50 read?
Answer: < 10 nM

Question: Which IC50 does the source give for `CCC(=O)O[C@H]1C(=O)[C@@]2(C)[C@H]([C@H](OC(=O)c3ccccc3)[C@]3(O)C[C@H](OC(=O)[C@H](O)[C@@H](NC(=O)OC(C)(C)C)c4ccoc4)C(C)=C1C3(C)C)[C@]1(OC(C)=O)CO[C@@H]1C[C@@H]2O` [Compound 0549] here?
Answer: < 10 nM

Question: With `CCCC(=O)O[C@H]1C(=O)[C@@]2(C)[C@H]([C@H](OC(=O)c3ccccc3)[C@]3(O)C[C@H](OC(=O)[C@H](O)[C@@H](NC(=O)c4ccccc4)c4cccs4)C(C)=C1C3(C)C)[C@]1(OC(C)=O)CO[C@@H]1C[C@@H]2O` [Compound 3258] as the molecule, how does the IC50 read?
Answer: < 1 nM

Question: Which IC50 does the source give for `CC(=O)O[C@@]12CO[C@@H]1C[C@H](O)[C@@]1(C)C(=O)[C@H](OC(=O)C3CC3)C3=C(C)[C@@H](OC(=O)[C@H](O)[C@@H](NC(=O)c4cccs4)c4ccco4)C[C@@](O)([C@@H](OC(=O)c4ccccc4)[C@H]21)C3(C)C` [Compound 3663] here?
Answer: < 1 nM

Question: How did the IC50 turn out when `CC(=O)O[C@@]12CO[C@@H]1C[C@H](O)[C@@]1(C)C(=O)[C@H](OC(=O)C3CC3)C3=C(C)[C@@H](OC(=O)[C@H](O)[C@@H](NC(=O)OCC(C)C)c4ccoc4)C[C@@](O)([C@@H](OC(=O)c4ccccc4)[C@H]21)C3(C)C` [Compound 4665] was run?
Answer: < 10 nM

Question: Which IC50 does the source give for `CC(=O)O[C@@]12CO[C@@H]1C[C@H](O)[C@@]1(C)C(=O)[C@H](OC(=O)C3CC3)C3=C(C)[C@@H](OC(=O)[C@H](O)[C@@H](NC(=O)OC(C)(C)C)c4ccc([N+](=O)[O-])cc4)C[C@@](O)([C@@H](OC(=O)c4ccccc4)[C@H]21)C3(C)C` [Compound 0879] here?
Answer: < 1 nM

Question: With `CCC(=O)O[C@H]1C(=O)[C@@]2(C)[C@H]([C@H](OC(=O)c3ccccc3)[C@]3(O)C[C@H](OC(=O)[C@H](O)[C@@H](NC(=O)c4ccccc4)c4ccsc4)C(C)=C1C3(C)C)[C@]1(OC(C)=O)CO[C@@H]1C[C@@H]2O` [Compound 0691] as the molecule, how does the IC50 read?
Answer: < 1 nM

Question: For `CC(=O)O[C@@]12CO[C@@H]1C[C@H](O)[C@@]1(C)C(=O)[C@H](OC(=O)C=C(C)C)C3=C(C)[C@@H](OC(=O)[C@H](O)[C@@H](NC(=O)OC(C)(C)C)c4ccccn4)C[C@@](O)([C@@H](OC(=O)c4ccccc4)[C@H]21)C3(C)C` [Compound 2464], which IC50 is on record?
Answer: < 1 nM

Question: For `CC(=O)OC12COC1CC(O)C1(C)C(=O)C(OC(=O)C(C)C)C3=C(C)C(OC(=O)C(O)C(NC(=O)OC(C)(C)C)c4ccncc4)CC(O)(C(OC(=O)c4ccccc4)C21)C3(C)C` (centres unmarked) [Compound 2255], which IC50 is on record?
Answer: < 1 nM

Question: `CC(=O)O[C@@]12CO[C@@H]1C[C@H](O)[C@@]1(C)C(=O)[C@H](OC(=O)c3cccs3)C3=C(C)[C@@H](OC(=O)[C@H](O)[C@@H](NC(=O)OC(C)(C)C)c4cccs4)C[C@@](O)([C@@H](OC(=O)c4ccccc4)[C@H]21)C3(C)C` [Compound 1900] was tested. Which IC50 did it give?
Answer: < 1 nM

Question: For `CC(=O)O[C@@]12CO[C@@H]1C[C@H](O)[C@@]1(C)C(=O)[C@H](OC(=O)c3cccs3)C3=C(C)[C@@H](OC(=O)[C@H](O)[C@@H](NC(=O)OC(C)(C)C)c4ccncc4)C[C@@](O)([C@@H](OC(=O)c4ccccc4)[C@H]21)C3(C)C` [Compound 1954], which IC50 is on record?
Answer: < 1 nM

Question: With `CCC(=O)O[C@H]1C(=O)[C@@]2(C)[C@H]([C@H](OC(=O)c3ccccc3)[C@]3(O)C[C@H](OC(=O)[C@H](O)[C@@H](NC(=O)c4ccccc4)C(C)C)C(C)=C1C3(C)C)[C@]1(OC(C)=O)CO[C@@H]1C[C@@H]2O` [Compound 0719] as the molecule, how does the IC50 read?
Answer: < 10 nM

Question: How did the IC50 turn out when `CC(=O)OC12COC1CC(O)C1(C)C(=O)C(OC(=O)C(C)C)C3=C(C)C(OC(=O)C(O)C(NC(=O)OC(C)(C)C)c4cccs4)CC(O)(C(OC(=O)c4ccccc4)C21)C3(C)C` (centres unmarked) [Compound 2287] was run?
Answer: < 1 nM

Question: `CC(=O)O[C@@]12CO[C@@H]1C[C@H](O)[C@@]1(C)C(=O)[C@H](OC(=O)C3CC3)C3=C(C)[C@@H](OC(=O)[C@H](O)[C@@H](NC(=O)c4ccccc4)c4ccncc4)C[C@@](O)([C@@H](OC(=O)c4ccccc4)[C@H]21)C3(C)C` [Compound 2855] was tested. Which IC50 did it give?
Answer: < 1 nM
